Activity calls are given as the source filed them. No cut-off for these calls is given here.
Assays:
Scenedesmus acutus [1] = assay: Protection against oxyfluorfen-induced phytotoxicity in Scenedesmus acutus in light condition assessed as reduction of ethane formation per ml of packed cell volume after 16 hr (reference value: 11.82 nM); assay type: functional
Scenedesmus acutus [2] = assay: Protection against oxyfluorfen-induced phytotoxicity in Scenedesmus acutus in light condition assessed as increase of chlorophyll content after 16 hr (reference value: 0.94 ug/ml); assay type: functional
Scenedesmus acutus [3] = assay: Protection against chlorophthalim-induced phytotoxicity in Scenedesmus acutus in light condition assessed as increase of chlorophyll content after 16 hr (reference value: 0.94 ug/ml); assay type: functional
Scenedesmus acutus [4] = assay: Protection against oxyfluorfen-induced phytotoxicity in Scenedesmus acutus in light condition assessed as reduction of protoporphyrin-9 accumulation per ml of packed cell volume after 2 hr; assay type: functional
Scenedesmus acutus [5] = assay: Protection against chlorophthalim-induced phytotoxicity in Scenedesmus acutus in light condition assessed as reduction of protoporphyrin-9 accumulation per ml of packed cell volume after 2 hr; assay type: functional
Scenedesmus acutus [6] = assay: Phytotoxicity against Scenedesmus acutus in light condition assessed as effect on protoporphyrin-9 accumulation per ml of packed cell volume at 10^-5 M after 16 hr; assay type: functional, organism-based
Scenedesmus acutus [7] = assay: Protection against oxyfluorfen-induced phytotoxicity in Scenedesmus acutus in light condition assessed as cell density per micro liter of packed cell volume after 16 hr (reference value: 2.1 ml); assay type: functional; design: unit not given here
Scenedesmus acutus [8] = assay: Phytotoxicity against Scenedesmus acutus in dark condition assessed as effect on protoporphyrin-9 accumulation per ml of packed cell volume at 10^-5 M after 16 hr; assay type: functional, organism-based
Scenedesmus acutus [9] = assay: Phytotoxicity against Scenedesmus acutus in light condition assessed as cell density per micro liter of packed cell volume after 16 hr (reference value: 3.4 ml); assay type: functional; design: unit not given here
Scenedesmus acutus [10] = assay: Phytotoxicity against Scenedesmus acutus in light condition assessed as reduction of chlorophyll content after 16 hr (reference value: 20.25 ug/ml); assay type: functional
Scenedesmus acutus [11] = assay: Protection against chlorophthalim-induced phytotoxicity in Scenedesmus acutus in light condition assessed as reduction of ethane formation per ml of packed cell volume after 16 hr (reference value: 11.82 nM); assay type: functional
Scenedesmus acutus [12] = assay: Protection against chlorophthalim-induced phytotoxicity in Scenedesmus acutus in light condition assessed as cell density per micro liter of packed cell volume after 16 hr (reference value: 2.1 ml); assay type: functional; design: unit not given here

| SMILES | Activity (Scenedesmus acutus [1]) | Activity (Scenedesmus acutus [2]) | Activity (Scenedesmus acutus [3]) | Activity (Scenedesmus acutus [4]) | Activity (Scenedesmus acutus [5]) | Activity (Scenedesmus acutus [6]) | Activity (Scenedesmus acutus [7]) | Activity (Scenedesmus acutus [8]) | Activity (Scenedesmus acutus [9]) | Activity (Scenedesmus acutus [10]) | Activity (Scenedesmus acutus [11]) | Activity (Scenedesmus acutus [12]) |
| --- | --- | --- | --- | --- | --- | --- | --- | --- | --- | --- | --- | --- |
| CCNc1nc(NCC)nc(C(Cl)(Cl)Cl)n1 | 1.63 nM | 13.31 µg/mL | 10.48 µg/mL | 37.08 nM | 27.65 nmol/mL | inactive | 2.2 | inactive | 2.6 | 19.23 µg/mL | 3.63 nmol/mL | 2.4 |
| CCNc1nc(NCC)nc(SC)n1 [SIMETRYN] | 0.4 nM | 14.46 µg/mL | 10.52 µg/mL | 30.67 nM | 31.92 nmol/mL | inactive | – | inactive | – | 17.74 µg/mL | 1.7 nmol/mL | – |
| CCNc1nc(C)nc(NCC)n1 | 11.93 nM | 1.05 µg/mL | 1.37 µg/mL | 57.97 nM | 67.45 nmol/mL | inactive | 2.3 | inactive | 3 | 19.09 µg/mL | 12.92 nmol/mL | 2.3 |
| CN(C)C(=O)Nc1ccc(Cl)c(Cl)c1 [DCMU] | – | 14.57 µg/mL | 11.56 µg/mL | 29.12 nM | 18.86 nmol/mL | – | – | – | – | 17.66 µg/mL | 0.41 nmol/mL | – |
| CCNc1nc(Cl)nc(NCC)n1 [SIMAZINE] | 2.82 nM | 13.05 µg/mL | 10.52 µg/mL | 52.7 nM | 19.15 nmol/mL | inactive | – | inactive | – | 16.86 µg/mL | 4.24 nmol/mL | – |
| CCNc1nc(NCC)nc(C(F)(F)F)n1 | 1.26 nM | 13.53 µg/mL | 11.04 µg/mL | 31.24 nM | 38.65 nmol/mL | inactive | 2.4 | inactive | 2.6 | 16.7 µg/mL | 3.2 nmol/mL | 2.4 |
| CCNc1nc(NCC)nc(-c2ccccc2)n1 | 11.93 nM | 0.67 µg/mL | 0.46 µg/mL | 69.9 nM | 133.96 nmol/mL | inactive | 2.2 | inactive | 3.2 | 19.08 µg/mL | 13.64 nmol/mL | 2.3 |
| O=C1C2=C(CCCC2)C(=O)N1c1ccc(Cl)cc1 [CHLOROPHTHALIUM] | – | – | 0.99 µg/mL | – | 128.65 nmol/mL | – | – | – | – | – | 12.73 nmol/mL | 2.3 |
| CCOc1cc(Oc2ccc(C(F)(F)F)cc2Cl)ccc1[N+](=O)[O-] [OXYFLUORFEN] | 11.82 nM | 0.94 µg/mL | – | 102.38 nM | – | – | – | – | – | – | – | – |
